# Laboratory results from patent publication US20100028395A1, “COMPOSITIONS CONTAINING N-ACETYLGLUCOSAMINE FOR USE IN DERMO-COSMETOLOGY AND AESTHETIC MEDICINE” (ROTTAPHARM S.P.A., priority 2007, published 2010).
# Key:
# Format in all cases: cell-based
# [1] = tested on: Human fibroblasts, Detroit 551 ATCC CCL III; experiment: Stimulation of protein synthesis in human fibroblast cultures (Lowry method)
# Procedure: The following have been used: • Human fibroblasts, Detroit 551 ATCC CCL III from LGC Promochem (Milan, Italy); • Human keratinocyte primary culture: HEKA, Cascade Biologics, cat. 005-5C. Test substances and concentrations
# The substances and concentrations tested are those reported below (on both fibroblasts and keratinocytes): • CA: 0.13, 0.66, 1.32, and 2.64 mg/ml • NAG: 0.1, 0.5, 1.0, and 2.0 mg/ml
# The method is identical to that already described for collagen and elastin with the difference that, following the addition of the test substances into the culture medium, the medium has been substituted daily for three days. Each sample has been tested in duplicate and the experiments have been repeated twice. The parameter of interest, i.e. protein synthesis, has been evaluated at 24, 48 and 72 hours on separate plates. Untreated cell cultures have been used as controls.
# Protein has been assayed using the Lowry method [Lowry et al. 1951] consisting of a Biuret reduction reaction envisaging the use of Folin-Ciocalteau reagent as chromophore, with a yellow to blue colour change and spectrophotometric measurement at 750 nm [Creighton et al. 1984; Sengupta et al. 1993].
# The protein content of the cultures in question has been obtained from comparison of their optical densities with a titration curve made using albumin as a protein standard.
# Evaluation of the effect of the substances tested, at the various concentrations and times, on cultures of both fibroblasts and keratinocytes has been expressed in both absolute terms (expressed protein production in mg/ml) and as percentage increase or decrease with respect to control cultures.
# The percentage difference increase or decrease of the effects exerted by CA and NAG, over various days and at the corresponding concentrations, have then been calculated, with evaluation of their potential statistical significance by means of the test Student “t” test.
# [2] = tested on: Human fibroblasts, Detroit 551 ATCC CCL III; experiment: Stimulation of collagen synthesis in human fibroblast cultures (Sircol assay); conditions: 24 h
# Excerpt: The scope of the test has been the evaluation and the comparison of the potential stimulation exerted by the test substances on the expression of collagen and elastin in “in vitro” cultures of skin-derived cells, such as fibroblasts. The test in question, even though conducted “in vitro”, can be considered to be predictive of the effects of use of the same substances “in vivo”. […] The samples have been dissolved directly in the culture medium. Each sample has been tested in duplicate and the experiments have been repeated twice. The parameters of interest have been determined after 24 hours on separate plates. Untreated cell cultures have been used as controls. A commercially available kit (Sircol™, biodye science) which uses the capacity of the stain Sirius Red to interact with the basic side chains of the aminoacids present in collagen itself, has been used for collagen assays. De novo collagen synthesis has been evaluated in the culture medium following treatment with the test substances, following the protocol provided with the kit, and by using the calibration curve obtained employing the collagen standard contained in turn in the kit. Evaluation of the effects of the substances tested, at the various concentrations, on fibroblast cultures, has been expressed as the absolute and percent increase or decrease of collagen and elastin expression, with respect to the corresponding control culture, after 24 hours of incubation. The percentage difference increase or decrease of the effects exerted by CA and NAG, at corresponding concentrations, have then been calculated, with consequent evaluation of their potential statistical significance by means of the test Student “t” test.
# [3] = tested on: Human fibroblasts, Detroit 551 ATCC CCL III; experiment: Stimulation of elastin synthesis in human fibroblast cultures (Fastin assay); conditions: 24 h
# Excerpt: The scope of the test has been the evaluation and the comparison of the potential stimulation exerted by the test substances on the expression of collagen and elastin in “in vitro” cultures of skin-derived cells, such as fibroblasts. The test in question, even though conducted “in vitro”, can be considered to be predictive of the effects of use of the same substances “in vivo”.
# Human fibroblasts, Detroit 551 ATCC CCL III from LGC Promochem (Milan, Italy) have been used.
# The substances and concentrations tested have been the same as those already described for stage B of the test on the stimulation of HA expression, i.e.: • CA: 0.66, 1.32, 1.98, 2.64 and 3.3 mg/ml • NAG: 0.5, 1.0, 1.5, 2.0 and 2.5 mg/ml • ASS: 0.16, 0.32, 0.48, 0.64 and 0.80 mg/ml
# Cells have been plated out in 96 well plates, 2500 cells/well for 24 hours in cell growth medium ([…], DMEM)+10% foetal calf serum (FCS). Fresh culture medium, enriched with just 5% FCS and containing the substances to be tested, so as to reach the final concentrations desired, has then been added. The samples have been dissolved directly in the culture medium. Each sample has been tested in duplicate and the experiments have been repeated twice. The parameters of interest have been determined after 24 hours on separate plates. Untreated cell cultures have been used as controls.
# Elastin has been assayed using a commercially available test (Fastin™, biodye science). The assay is based on the interaction of 5,10,15,20-tetraphenyl-21,23-porphyrin with elastin molecules.
# De novo elastin synthesis has been evaluated in the culture medium following treatment with the test substances, following the protocol provided with the test, and by using the calibration curve obtained employing the elastin standard contained in the kit itself.
# Evaluation of the effects of the substances tested, at the various concentrations, on fibroblast cultures, has been expressed as the absolute and percent increase or decrease of collagen and elastin expression, with respect to the corresponding control culture, after 24 hours of incubation.
# The percentage difference increase or decrease of the effects exerted by CA and NAG, at corresponding concentrations, have then been calculated, with consequent evaluation of their potential statistical significance by means of the test Student “t” test.
smiles,measurement,setting,value
"CC(=O)N[C@@H](C=O)[C@@H](O)[C@H](O)[C@H](O)CO [NAG, N-acetyl-2-amino-2 deoxyglucose]",Expr. prot. from NAG % incr. over baseline,"[1]; NAG 0.10 mg/ml, 24 hours",−14.6%
same,Expr. prot. from NAG (mg/ml) - Mean +/− st. dev.,"[1]; NAG 0.10 mg/ml, 24 hours",0.70 ± 0.11 mg/mL
same,Expr. prot. from NAG % incr. over baseline,"[1]; NAG 0.10 mg/ml, 48 hours",−7.8%
same,Expr. prot. from NAG (mg/ml) - Mean +/− st. dev.,"[1]; NAG 0.10 mg/ml, 48 hours",0.95 ± 0.08 mg/mL
same,Expr. prot. from NAG % incr. over baseline,"[1]; NAG 0.10 mg/ml, 72 hours",−6.4%
same,Expr. prot. from NAG (mg/ml) - Mean +/− st. dev.,"[1]; NAG 0.10 mg/ml, 72 hours",1.03 ± 0.18 mg/mL
same,Expr. prot. from NAG % incr. over baseline,"[1]; NAG 0.50 mg/ml, 24 hours",+31.7%
same,Expr. prot. from NAG (mg/ml) - Mean +/− st. dev.,"[1]; NAG 0.50 mg/ml, 24 hours",1.08 ± 0.29 mg/mL
same,Expr. prot. from NAG % incr. over baseline,"[1]; NAG 0.50 mg/ml, 48 hours",−9.7%
same,Expr. prot. from NAG (mg/ml) - Mean +/− st. dev.,"[1]; NAG 0.50 mg/ml, 48 hours",0.93 ± 0.08 mg/mL
same,Expr. prot. from NAG % incr. over baseline,"[1]; NAG 0.50 mg/ml, 72 hours",+3.6%
same,Expr. prot. from NAG (mg/ml) - Mean +/− st. dev.,"[1]; NAG 0.50 mg/ml, 72 hours",1.14 ± 0.16 mg/mL
same,Expr. prot. from NAG % incr. over baseline,"[1]; NAG 1.00 mg/ml, 24 hours",+35.4%
same,Expr. prot. from NAG (mg/ml) - Mean +/− st. dev.,"[1]; NAG 1.00 mg/ml, 24 hours",1.11 ± 0.22 mg/mL
same,Expr. prot. from NAG % incr. over baseline,"[1]; NAG 1.00 mg/ml, 48 hours",−21.4%
same,Expr. prot. from NAG (mg/ml) - Mean +/− st. dev.,"[1]; NAG 1.00 mg/ml, 48 hours",0.81 ± 0.11 mg/mL
same,Expr. prot. from NAG % incr. over baseline,"[1]; NAG 1.00 mg/ml, 72 hours",−5.5%
same,Expr. prot. from NAG (mg/ml) - Mean +/− st. dev.,"[1]; NAG 1.00 mg/ml, 72 hours",1.04 ± 0.20 mg/mL
same,Expr. prot. from NAG (mg/ml) - Mean +/− st. dev.,"[1]; NAG 2.00 mg/ml, 24 hours",1.24 ± 0.17 mg/mL
same,Expr. prot. from NAG % incr. over baseline,"[1]; NAG 2.00 mg/ml, 48 hours",+6.8%
same,Expr. prot. from NAG (mg/ml) - Mean +/− st. dev.,"[1]; NAG 2.00 mg/ml, 48 hours",1.10 ± 0.20 mg/mL
same,Expr. prot. from NAG % incr. over baseline,"[1]; NAG 2.00 mg/ml, 72 hours",+0.91%
same,Expr. prot. from NAG (mg/ml) - Mean +/− st. dev.,"[1]; NAG 2.00 mg/ml, 72 hours",1.11 ± 0.19 mg/mL
same,Collagen (%) (Diff. from baseline),[2]; NAG 0.50 mg/ml,+1.64%
same,Collagen(μg/ml) (Diff. from baseline),[2]; NAG 0.50 mg/ml,+0.07 μg/ml
same,Collagen (%) (Diff. from baseline),[2]; NAG 1.00 mg/ml,+30.28%
same,Collagen(μg/ml) (Diff. from baseline),[2]; NAG 1.00 mg/ml,+1.29 μg/ml
same,Collagen (%) (Diff. from baseline),[2]; NAG 1.50 mg/ml,+36.15%
same,Collagen(μg/ml) (Diff. from baseline),[2]; NAG 1.50 mg/ml,+1.54 μg/ml
same,Collagen (%) (Diff. from baseline),[2]; NAG 2.00 mg/ml,+32.86%
same,Collagen(μg/ml) (Diff. from baseline),[2]; NAG 2.00 mg/ml,+1.33 μg/ml
same,Collagen (%) (Diff. from baseline),[2]; NAG 2.50 mg/ml,+47.65%
same,Collagen(μg/ml) (Diff. from baseline),[2]; NAG 2.50 mg/ml,+2.03 μg/ml
same,Elastin (μg/ml) (Diff. from baseline),[3]; NAG 0.50 mg/ml,+11.21 μg/ml
same,Elastin (μg/ml) (Mean ± st. dev.),[3]; NAG 0.50 mg/ml,16.29 ± 0.83 µg/mL
same,Elastin (%) (Diff. from baseline),[3]; NAG 1.00 mg/ml,+278.94%
same,Elastin (μg/ml) (Diff. from baseline),[3]; NAG 1.00 mg/ml,+14.17 μg/ml
same,Elastin (μg/ml) (Mean ± st. dev.),[3]; NAG 1.00 mg/ml,19.25 ± 0.99 µg/mL
same,Elastin (%) (Diff. from baseline),[3]; NAG 1.50 mg/ml,+320.28%
same,Elastin (μg/ml) (Diff. from baseline),[3]; NAG 1.50 mg/ml,+16.27 μg/ml
same,Elastin (μg/ml) (Mean ± st. dev.),[3]; NAG 1.50 mg/ml,21.35 ± 1.01 µg/mL
same,Elastin (%) (Diff. from baseline),[3]; NAG 2.00 mg/ml,+345.27%
same,Elastin (μg/ml) (Diff. from baseline),[3]; NAG 2.00 mg/ml,+17.54 μg/ml
same,Elastin (μg/ml) (Mean ± st. dev.),[3]; NAG 2.00 mg/ml,22.62 ± 1.03 µg/mL
same,Elastin (μg/ml) (Diff. from baseline),[3]; NAG 2.50 mg/ml,+17.22 μg/ml
same,Elastin (μg/ml) (Mean ± st. dev.),[3]; NAG 2.50 mg/ml,22.30 ± 1.04 µg/mL
